Measurements published in patent US6103729A, “Cathecol derivatives and a method for the preparation thereof and a pharmaceutical composition containing the same” (Cheil Jedang Corp., priority 1996, dated 2000).

Legend:
Wistar rats = test: Passive Cutanious Anaphylaxis (PCA); type: in vivo, rat; settings: oral, female Wistar rats, evans blue read at 620 nm
Method: I. Passive Cutanious Anaphylaxis (PCA)
Hair on the back of each of the three 5 weeks old female Wistar rats were cut by clippers. Prepared mouse antiserum was diluted with 50×physiological saline solution. 0.05 ml of diluted antiserum solution was subcutaneously injected into two hair-cut sites on the back of each rat. After 3 hours, the test compounds were orally administered to the rats. After 30 minutes, 0.1% ovalbumin as antigen was mixed with 1% evans blue in the equivalent volumes and 0.1 ml of the mixture was injected in a peripheral vein of the tail of each rat. After 30 minutes, rats were sacrificed by bleeding from the abdominal arteries and their skins were stripped from the subcutaneous injection spots in uniform sizes. After immersing the stripped skins in 1.0 ml of 1.2 N KOH in 9 ml test tube and stopping the tube, a shaking incubation was performed at 37° C. for 24 hours. Then, after the mixtured solution of acetone and 0.6 N phosphoric acid (13:5) was added, the test tube was shaking-incubated for 1 hour and centrifuged to 1,700 g at 20° C. for 10 minutes. After insoluble lipids were removed from the top of the supernatant, the supernatant was measured at 620 nm. IgE was quantified by diluting the mixtured acetone-phosphoric aicd solution and drawing evans blue assay lines. The results are shown in Table I below, in which the amounts of IgE were expressed as μg/ml.

Phosphodiesterase II = biological target: T1, Phosphodiesterase II (Homo sapiens, UniProt O00408); test: Inhibition of phosphodiesterase activity ([3H]cAMP hydrolysis); type: biochemical; settings: PDE partially purified from human U937 cells, 1.0 μM cAMP, 30° C., 20 minutes; test concentration not given
T1 construct: partially purified from human U937 cells; endogenous in cells; host or cells: U937 cells (partially purified)
Method: (§1) II. Inhibition of Phosphodiesterase IV Activity
(§2) Phosphodiesterase I, II, III, IV or V partially purified from human U937 cells, test compound of Example 1, 2 or 3 and 1.0 μM cAMP including μM [^3 H] cAMP were incubated at 30° C. for 20 minutes. The PDE reaction to convert cAMP into AMP was completed by boiling the reaction solution for 2 minutes. AMP was converted into adenosine by adding snake venom nucleotidase and incubating the reaction solution for 10 minutes. While unhydrolyzed cAMPs were bonded to AG1-X2 resin, the aqueous remaining [^3 H] adenosine was quantified by scintillation counting. The results are shown in Table II below, in which the values indicate inhibition(%) of each PDE by each test compound.

Phosphodiesterase V = biological target: T2, Phosphodiesterase V (Homo sapiens, UniProt O76074); test: as above; type: biochemical; settings: PDE partially purified from human U937 cells, 1.0 μM cAMP, 30° C., 20 minutes; test concentration not given
T2 construct: printed source human U937 cells (possibly human platelets in practice)
Method: as §1, §2

Phosphodiesterase III = test: as above; type: biochemical; settings: PDE partially purified from human U937 cells, 1.0 μM cAMP, 30° C., 20 minutes; test concentration not given
Method: as §1, §2

Phosphodiesterase IV = test: as above; type: biochemical; settings: PDE partially purified from human U937 cells, 1.0 μM cAMP, 30° C., 20 minutes; test concentration not given
Method: as §1, §2

Phosphodiesterase I = test: as above; type: biochemical; settings: PDE partially purified from human U937 cells, 1.0 μM cAMP, 30° C., 20 minutes; test concentration not given
Method: as §1, §2

T1 sequence (O00408 whole entry): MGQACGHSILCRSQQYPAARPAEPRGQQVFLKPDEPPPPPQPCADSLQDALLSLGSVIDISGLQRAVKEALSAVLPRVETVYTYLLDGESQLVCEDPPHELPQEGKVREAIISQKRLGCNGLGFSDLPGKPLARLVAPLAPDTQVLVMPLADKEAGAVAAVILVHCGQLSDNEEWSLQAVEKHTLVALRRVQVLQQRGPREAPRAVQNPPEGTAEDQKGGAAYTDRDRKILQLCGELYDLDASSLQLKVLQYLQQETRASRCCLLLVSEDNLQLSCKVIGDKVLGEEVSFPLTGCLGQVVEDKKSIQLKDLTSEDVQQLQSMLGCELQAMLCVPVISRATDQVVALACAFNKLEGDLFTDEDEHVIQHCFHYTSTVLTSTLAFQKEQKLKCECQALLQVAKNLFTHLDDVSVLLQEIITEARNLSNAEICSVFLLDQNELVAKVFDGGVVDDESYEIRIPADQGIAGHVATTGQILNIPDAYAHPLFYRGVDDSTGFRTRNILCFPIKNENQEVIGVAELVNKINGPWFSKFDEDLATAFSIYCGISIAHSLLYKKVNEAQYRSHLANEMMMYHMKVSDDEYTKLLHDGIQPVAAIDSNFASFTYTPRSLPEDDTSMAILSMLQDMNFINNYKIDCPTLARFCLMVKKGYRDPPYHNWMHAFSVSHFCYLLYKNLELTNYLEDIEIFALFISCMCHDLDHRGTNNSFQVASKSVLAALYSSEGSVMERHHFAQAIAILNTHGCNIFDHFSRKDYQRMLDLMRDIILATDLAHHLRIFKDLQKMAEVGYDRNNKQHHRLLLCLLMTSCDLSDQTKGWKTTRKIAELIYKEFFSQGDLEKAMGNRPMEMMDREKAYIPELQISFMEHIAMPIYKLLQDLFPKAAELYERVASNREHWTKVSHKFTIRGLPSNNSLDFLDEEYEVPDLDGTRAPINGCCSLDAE

| Compound | amounts of IgE (Wistar rats; dose 0.1 mg/rat) | amounts of IgE (Wistar rats; dose 2.0 mg/rat) | inhibition(%) of Phosphodiesterase Type II (Phosphodiesterase II) | inhibition(%) of Phosphodiesterase Type V (Phosphodiesterase V) | inhibition(%) of Phosphodiesterase Type III (Phosphodiesterase III) | inhibition(%) of Phosphodiesterase Type IV (Phosphodiesterase IV) | inhibition(%) of Phosphodiesterase Type I (Phosphodiesterase I) |
| --- | --- | --- | --- | --- | --- | --- | --- |
| COc1ccc(C(=O)Nc2n[nH]cc2C(N)=O)cc1OC1CCCC1 [Example 1, 3-(3-cyclopentyloxy-4-methoxyphenylcarboxylamido)-1H-4-pyrazolecarboxylamide] | 4.578 µg/mL | 4.099 µg/mL | 65% | 89% | 68% | 90% | 58% |
| COc1ccc(C(=O)Nc2nc[nH]c2C(N)=O)cc1OC1CCCC1 [Example 2] | 3.381 µg/mL | 2.694 µg/mL | 60% | 61% | 67% | 80% | 68% |
| COc1ccc(C(=O)Nc2ccsc2C(N)=O)cc1OC1CCCC1 [Example 3] |  |  | 68% | 69% | 74% | 90% | 67% |
